Assay results reported in patent publication US20250188110A1, “SPECIFIC SMALL MOLECULE INHIBITORS THAT BLOCK KMT9 METHYLTRANSFERASE ACTIVITY AND FUNCTION” (ALBERT-LUDWIGS-UNIVERSITÄT FREIBURG, priority 2021, published 2025).
Read-outs that look alike come from different tables or passages of the source.

Legend:
KMT9 [1] = target: T1, KMT9 (Homo sapiens, UniProt Q9Y5N5); assay: Microscale thermophoresis (MST) KMT9 binding
T1 sequence (Q9Y5N5 1-214): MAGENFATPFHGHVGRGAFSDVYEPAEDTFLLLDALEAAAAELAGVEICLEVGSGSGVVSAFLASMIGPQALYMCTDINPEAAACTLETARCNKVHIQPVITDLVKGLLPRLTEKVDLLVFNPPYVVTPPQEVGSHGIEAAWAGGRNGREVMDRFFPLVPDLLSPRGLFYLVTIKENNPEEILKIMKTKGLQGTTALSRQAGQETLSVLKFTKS
T1 sequence (Q9UI30 1-120 isoform Q9UI30-2 partner): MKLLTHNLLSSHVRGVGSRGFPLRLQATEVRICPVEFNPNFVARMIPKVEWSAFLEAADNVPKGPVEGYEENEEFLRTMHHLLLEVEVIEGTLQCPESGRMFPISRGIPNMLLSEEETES
Protocol: To determine the binding affinity of the compounds according to the present invention and KMT9, microscale thermophoresis (MST) analysis was performed with a NanoTemper Monolith NT.115 instrument (NanoTemper Technologies GmbH). KMT9 was labelled with a RED-Tris-NTA labelling kit (NanoTemper Technologies GmbH) based on the manufacturer's instructions. Buffer including 25 mM HEPES (pH 7.5), 100 mM NaCl, 1 mM DTT and 0.05% Tween was used for the reaction buffer. Varying concentrations of the tested compounds of formula (I) as indicated in Table 1 were titrated against His-tag labelled KMT9 proteins (20 nM). Samples were loaded into standard Capillaries (NanoTemper Technologies GmbH) and MST measurements were performed using 40% MST power and 100% LED power. For each set of binding experiments, MST measurement was carried out with Binding Affinity module in MO.Control program under Nano-RED Excitation. Datasets were processed with the MO.Affinity Analysis software (NanoTemper Technologies GmbH).
For the results of the microscale thermophoresis (MST) assay shown as “MST” in Table 1, “A” represents a Kd of equal to or less than 10 nM (Kd≤10 nM); “B” represents a Kd of greater than 10 nM and equal to or less than 100 nM (10 nM<Kd<100 nM); “C” represents a Kd of greater than 100 nM and equal to or less than 1000 nM (100 nM<Kd ≤ 1000 nM); “D” represents a Kd of greater than 1000 nM (1000 nM<Kd).

KMT9 [2] = target: T1, KMT9; assay: KMT9 methyltransferase inhibition assay, 3H-SAM scintillation (entries 1-154); assay type: biochemical; conditions: entries 1-154: 3H-SAM assay, 25 nM KMT9, 5 μM ETF1
Protocol: The assay was carried out in 0.5 mL Eppendorf tubes in duplicates. Assay buffer consisted of 50 mM BTP, 1 mM MgCl2, 1 mM DTT and 0.01% Triton-X^100 at a pH of 8.5 (adjusted using 1 M HCl and 1 M NaOH). 20X inhibitor stock (in DMSO), 2X enzyme stock and 4X substrate mix (both in assay buffer) were prepared. The substrate mix consisted of Tritium-labelled S-adenosylmethionine (3H-SAM), S-adenosylmethionine (SAM) and eukaryotic peptide chain release factor subunit1 (Homo sapiens, residues 140-275)(ETF1). Final assay concentrations were set to 25 nM KMT9, 0.3 μM 3H-SAM, 0.7 µM SAM and 5 μM ETF1. […] 5 μL of 4x substrate mix was added to initiate the reaction. The final reaction volume was 20 μL. For the positive control, the compound of formula (I) was replaced by DMSO; for the negative control, the compound of formula (I) was replaced by DMSO and KMT9 was replaced by assay buffer. The reaction mix was incubated in an Eppendorf thermomixer comfort at 30° C. for 2 h, shaking at 300 rpm. The reaction was quenched using 5 μL 50% trichloroacetic acid (TCA) and incubated at 25° C. for 5 minutes. 22 μL of the mixture was transferred into 96-well MultiScreen@HTS FB filter plates (Merck KGaA, Darmstadt, Germany) and washed four times with 10% TCA and two times with 100% ethanol. The plate was dried overnight, the filters were transferred into individual 6 mL Pony Vials (Perkin Elmer Inc, Waltham, MA, USA) and incubated in 3 mL of Ultima Gold scintillation cocktail (Perkin Elmer Inc, Waltham, MA, USA) for 30 minutes. The scintillation signal was measured for 3x 1 min using TriCarb 2910 TR (Perkin Elmer) scintillation counter in 3H CPM mode (LL: 0, UL: 18.6). Inhibition was calculated using the following formula: […]
With xc: signal of compound, Xpos: mean signal of positive control, Xneg: mean signal of negative control. Data fitting was carried out by GraphPad 7.0 using nonlinear fit ([Inhibitor]vs. response-variable slope (four parameters)).
For the results of the methyltransferase inhibition assay shown as “Inhibition” in Table 1, “I” represents an IC50 less than 0.1 μM, “II” represents an IC50 equal or higher than 0.1 μM and less than 1 μM, “III” represents an IC50 equal or higher than 1 µM and less than 10 µM and “IV” represents an IC50 equal or higher than 10 µM

KMT9 [3] = target: T1, KMT9; assay: KMT9 thermal shift assay (SyproOrange); assay type: binding; conditions: 500 µM compound
Protocol: The assay was carried out in 96-well Hard-Shell PCR plates (Bio-Rad Laboratories Inc.). Assay buffer consisted of 50 mM BTP, 1 mM MgCl2 and 1 mM DTT at a pH of 8.5 (adjusted using 1 M HCl and 1 M NaOH). 20X inhibitor stock (in DMSO), 2X enzyme stock and 4X SyproOrange (SO) stock (both in assay buffer) were prepared. 1 μL of 20X compound, 4 μL of assay buffer, 10 μL of 2X KMT9 and 5 μL of 4X SO were pipetted. For the no-compound control, 20X inhibitor stock was replaced by DMSO. The final volume was 20 μL. The plate was spun down at 700 rpm for 1 min using a Hettich UNIVERSAL 320 centrifuge and incubated at 25° C., shaking at 600 rpm. After incubation, the plate was spun down for 1 min at 700 rpm and measurement was conducted using a CFX96 Touch Real-Time PCR Detection System (Bio-Rad Laboratories Inc.). The plate was equilibrated at 20° C. for 4 min and then heated stepwise at a rate of 1° C. per 15 s until 95° C. After every step, fluorescence was measured in FRET mode. Calculation of melting points was conducted by a Boltzman sigmoidal model using GraphPad Prism 7.0.
For the results of the thermal shift assay shown as “Thermal shift” in Table 1, “++++” represents a ΔTm of greater 20 K, “+++” represents a ΔTm of greater than 15 K and less than or equal to 20 K (15 K<ΔTm≤20 K); “++” represents a ΔTm of greater than 10 K and less than or equal to 15 K (10 K<ΔTm ≤ 15 K); “+” represents a ΔTm of equal to or less than 10 K (ΔTm≤10 K).

[4] = microscale thermophoresis, His-tag labelled KMT9 (20 nM), read-out: MST
[5] = ΔTm, 2 μM KMT9, 5X SO, read-out: Thermal shift
[6] = 2 μM KMT9, read-out: Thermal shift (ΔTm)

Row | Kd (KMT9 [1]; [4]) [nM] | IC50 (KMT9 [2]) [nM] | ΔTm at 500 µM (KMT9 [3]; [5]) [°C] | ΔTm at 500 µM (KMT9 [3]; [6]) [°C] | Kd (KMT9 [1]; His-tag labelled KMT9 20 nM, read-out: MST (Kd)) [nM] | Compound
1 |  | > 10000 |  |  |  | Nc1ncnc2c1ncn2[C@@H]1O[C@H](C(=O)NCCCNCCc2ccc3ccccc3c2)[C@@H](O)[C@H]1O [688 (222), (2S,3S,4R,5R)-5-(6-amino-9H-purin-9-yl)-3,4-dihydroxy-N-(3-((2-(naphthalen-2-yl)ethyl)amino)propyl) tetrahydrofuran-2-carboxamide]
2 |  |  |  | ≤ 10 |  | O[C@@H]1[C@H](O)[C@@H]([C@@H]2CCCNC2)C[C@H]1n1cc(-c2nccs2)c2cncnc21 [Compound 401, (1S,2R,3R,5R)-3-((S)-piperidin-3-yl)-5-(5-(thiazol-2-yl)-7//pyrrolo[2,3-a]pyrimidin-7-yl) cyclopentane-1,2-diol]
3 |  |  |  | ≤ 10 |  | O[C@@H]1[C@H](O)[C@@H]([C@H]2CCCNC2)C[C@H]1n1cc(-c2nccs2)c2cncnc21 [Compound 402, (1S,2R,3R,5R)-3-((R)-piperidin-3-yl)-5-(5-(thiazol-2-yl)-7H-pyrrolo[2,3-a]pyrimidin-7-yl) cyclopentane-1,2-diol]
4 |  |  |  | ≤ 10 |  | O[C@@H]1[C@H](O)[C@@H]([C@H]2CCCNC2)C[C@H]1n1ccc2c(C(F)F)ncnc21 [Compound 403, (1R,2S,3R,5R)-3-(4-(difluoromethyl)-7H-pyrrolo[2,3-d]pyrimidin-7-yl)-5-((R)-piperidin-3-yl) cyclopentane-1,2-diol]
5 |  |  |  | > 20 | ≤ 10 | Nc1nc(Cl)nc2c1c(-c1ccn(S(=O)(=O)c3ccccc3)n1)cn2[C@@H]1C[C@H](C2CCN(CC3CC3)CC2)[C@@H](O)[C@H]1O [Compound 520, (1R,2S,3R,5R)-3-{4-Amino-5-[1-(benzenesulfonyl)pyrazol-3-yl]-2-chloropyrrolo[2,3-d]pyrimidin-7-yl}-5-[1-(cyclopropylmethyl)piperidin-4-yl]cyclopentane-1,2-diol]
6 | > 1000 |  | ≤ 10 |  |  | CNc1ncnc2c1ccn2[C@@H]1C[C@H]([C@@H]2C[C@@H]2CCCNCCc2ccccc2)[C@@H](O)[C@H]1O [Compound 683, (1R,2S,3R,5R)-3-(4-(methylamino)-7H-pyrrolo[2,3-d]pyrimidin-7-yl)-5-((1R,2S)-2-(3-(phenethylamino)propyl)cyclopropyl)cyclopentane-1,2-diol]

The next lines start with the compound.

Row | Compound | Kd (KMT9 [1]; [4]) [nM] | IC50 (KMT9 [2]) [nM] | ΔTm at 500 µM (KMT9 [3]; [5]) [°C] | ΔTm at 500 µM (KMT9 [3]; [6]) [°C] | Kd (KMT9 [1]; His-tag labelled KMT9 20 nM, read-out: MST (Kd)) [nM]
7 | CNc1ncnc2c1ccn2[C@@H]1C[C@H](CNCCC(=O)NCCc2ccccc2)[C@@H](O)[C@H]1O (racemic) [434 (306), 3-((((1R,2R,3S,4R)-2,3-dihydroxy-4-(4-(methylamino)-7H-pyrrolo[2,3-d]pyrimidin-7-yl)cyclopentyl)methyl)amino)-N-phenethylpropanamide and 3-((((1S,2R,3S,4R)-2,3-dihydroxy-4-(4-(methylamino)-7H-pyrrolo[2,3-d]pyrimidin-7-yl)cyclopentyl)methyl)amino)-N-phenethylpropanamide] | > 1000 | > 10000 | ≤ 10 |  | 
8 | CNc1ncnc2c1ccn2[C@@H]1C[C@H](CNCC2CNCCO2)[C@@H](O)[C@H]1O (mixture of isomers) [435 (307), (1R,2S,3R,5R)-3-(4-(methylamino)-7H-pyrrolo[2,3-d]pyrimidin-7-yl)-5-(((morpholin-2-ylmethyl)amino)methyl) cyclopentane-1,2-diol and (1R,2S,3R,5S)-3-(4-(methylamino)-7H-pyrrolo[2,3-d]pyrimidin-7-yl)-5-(((morpholin-2-ylmethyl)amino)methyl) cyclopentane-1,2-diol] | > 1000 | > 10000 | ≤ 10 |  | 
9 | CNc1ncnc2c1ccn2[C@@H]1C[C@H](CN2CCC[C@]23CCCNC3)[C@@H](O)[C@H]1O (single isomer, unassigned) [449 (321)] | > 1000 | > 10000 | ≤ 10 |  | 
10 | CNc1ncnc2c1ccn2[C@@H]1C[C@H](CN2CCC[C@@]23CCCNC3)[C@@H](O)[C@H]1O (single isomer, unassigned) [450 (322)] | > 1000 | > 10000 | ≤ 10 |  | 
11 | CNc1ncnc2c1ccn2[C@@H]1C[C@H](CNCCCNCCc2cccc(Oc3ccccc3)c2)[C@@H](O)[C@H]1O [287 (184)] | 100 to 1000 | 1000 to 10000 | 10 to 15 |  | 
12 | CNc1ncnc2c1ccn2[C@@H]1C[C@H](CNCCCNCCc2cccc(N(C)c3ccccc3)c2)[C@@H](O)[C@H]1O [289 (186), (1S,2R,3R,5R)-3-(((3-((3-(methyl(phenyl)amino)phenethyl)amino)propyl)amino)methyl)-5-(4-(methylamino)-7H-pyrrolo[2,3-d]pyrimidin-7-yl) cyclopentane-1,2-diol] | > 1000 | > 10000 | 10 to 15 |  | 
13 | CNc1ncnc2c1ccn2[C@@H]1C[C@H](CNCCCNCCc2ccccc2)[C@@H](O)[C@H]1O [291 (188), (1R,2S,3R,5R)-3-(4-(methylamino)-7H-pyrrolo[2,3-a]pyrimidin-7-yl)-5-(((3-(phenethylamino)propyl)amino)methyl) cyclopentane-1,2-diol] | > 1000 | 1000 to 10000 | 10 to 15 |  | 
14 | Nc1ncnc2c1c(-c1ccccc1)cn2[C@@H]1C[C@H](CNCCCNCCc2ccc(F)cc2)[C@@H](O)[C@H]1O [340 (244), (1R,2S,3R,5R)-3-(4-amino-5-phenyl-7H-pyrrolo[2,3-d]pyrimidin-7-yl)-5-(((3-((4-fluorophenethyl)amino)propyl)amino)methyl) cyclopentane-1,2-diol] | 10 to 100 | 100 to 1000 |  |  | 
